Experimental data published in patent publication EP1409500B1, “ALKYLATED INOSITOLGLYCANS AND THEIR USES” (Rodaris Pharmaceuticals Limited, priority 2000, dated 2001).

Tests used:
[1] = tested on: PKA; assay: PKA inhibition assay; assay type: biochemical
Source text: (§1) Methods for obtaining A-type and P-type mediators are set out in Caro et al, 1997, and in WO98/11116 and WO98/11117. Protocols for determining characteristic IPG biological activities such as PDH activation, PKA inhibition, acetylCoA activation, fructose-1,6-bis-phosphatase activity and lipogenesis are well known in the art, e.g. as described in Caro et al^[14].
(§2) The compounds of the invention can be tested for one or more the characteristic IPG-P and/or IPG-A activities mentioned above to determine whether they will be suitable for use a IPG mimetics or antagonists. Preferred assays measure the effect of the compounds on PDH phosphatase, PKA or lipogenesis. Protocols for these assays are provided in Caro et al ^[14]. The compounds can also be tested to determine whether they activate or inhibit other enzymes involved in insulin signalling mechanism, such as glucose-6-phosphatase.

[2] = tested on: PDH phosphatase; assay: PDH phosphatase activation assay; assay type: biochemical; settings: 100µM
Source text: as §1, §2
In particular, preferred compounds having 1,6 linkages are good activators of PDH phosphatase activity.

PDH % activation [2]	Compound	PKA % inhibition ([1]; 0.1µM)	PKA % inhibition ([1]; 1µM)	PKA % inhibition ([1]; 10µM)
17%	CO[C@H]1[C@H](O)[C@@H](O)[C@@H](O[C@H]2O[C@H](CO)[C@H](O)[C@H](O)[C@H]2N)[C@H](O)[C@@H]1O [RGL1025, O-(2-amino-2deoxy-D-galactopyranosyl)-α(1,6)-D-3-O-methyl-chiro-inositol.]	48%	-13%	–
65%	CO[C@H]1[C@H](O)[C@@H](O)[C@@H](O[C@H]2O[C@H](CO)[C@@H](O)[C@H](O)[C@H]2N)[C@H](O)[C@@H]1O [RGL1024, O-(2-amino-2-deoxy-D-glucopyranosyl)-α(1,6)-D-3-O-methyl-chiro-inositol.]	17%	34%	2%
38%	CO[C@H]1[C@H](O)[C@@H](O)[C@@H](O[C@@H]2O[C@H](CO)[C@@H](O)[C@H](O)[C@H]2N)[C@H](O)[C@@H]1O [RGL1015, O-(2-amino-2-deoxy-D-glucopyranosyl)-β(1,6)-D-3-O-methyl-chiro-inositol.]	14%	15%	–
